{"source": "the NIST ThermoML archive (doi:10.1021/je8003832)", "assay": "xn = mol fraction of the nth substance listed", "conditions": "101 kPa, Liquid", "note": "Numbers after ± are expanded uncertainties.", "data": [{"smiles": "CCCCn1cc[n+](C)c1.O=S(=O)([O-])C(F)(F)F", "note": "[1-butyl-3-methylimidazolium trifluoromethanesulfonate] + O", "values": [{"measurement": "mass density", "setting": "318.15 K, x2 = 0.501", "value": "1262 ± 4", "unit": "kg/m3"}, {"measurement": "viscosity", "setting": "318.15 K, x2 = 0.501", "value": "12 ± 0.87", "unit": "mPa·s"}, {"measurement": "mass density", "setting": "318.15 K, x2 = 0.5923", "value": "1252.2 ± 3.9", "unit": "kg/m3"}, {"measurement": "viscosity", "setting": "318.15 K, x2 = 0.5923", "value": "9.907 ± 0.74", "unit": "mPa·s"}, {"measurement": "mass density", "setting": "318.15 K, x2 = 0.7023", "value": "1234.9 ± 3.8", "unit": "kg/m3"}, {"measurement": "viscosity", "setting": "318.15 K, x2 = 0.7023", "value": "7.465 ± 0.59", "unit": "mPa·s"}, {"measurement": "mass density", "setting": "318.15 K, x2 = 0.799", "value": "1208.9 ± 3.7", "unit": "kg/m3"}, {"measurement": "viscosity", "setting": "318.15 K, x2 = 0.799", "value": "5.339 ± 0.45", "unit": "mPa·s"}, {"measurement": "mass density", "setting": "318.15 K, x2 = 0.901", "value": "1153 ± 3.5", "unit": "kg/m3"}, {"measurement": "viscosity", "setting": "318.15 K, x2 = 0.901", "value": "3.156 ± 0.28", "unit": "mPa·s"}, {"measurement": "mass density", "setting": "323.15 K, x2 = 0", "value": "1284.4 ± 4.5", "unit": "kg/m3"}, {"measurement": "viscosity", "setting": "323.15 K, x2 = 0", "value": "29.55 ± 2", "unit": "mPa·s"}, {"measurement": "mass density", "setting": "323.15 K, x2 = 0.1032", "value": "1280.3 ± 4.4", "unit": "kg/m3"}, {"measurement": "viscosity", "setting": "323.15 K, x2 = 0.1032", "value": "21.51 ± 1.5", "unit": "mPa·s"}, {"measurement": "mass density", "setting": "323.15 K, x2 = 0.1939", "value": "1276.8 ± 4.3", "unit": "kg/m3"}, {"measurement": "viscosity", "setting": "323.15 K, x2 = 0.1939", "value": "18.11 ± 1.2", "unit": "mPa·s"}, {"measurement": "mass density", "setting": "323.15 K, x2 = 0.2987", "value": "1272.2 ± 4.2", "unit": "kg/m3"}, {"measurement": "viscosity", "setting": "323.15 K, x2 = 0.2987", "value": "15.17 ± 1.1", "unit": "mPa·s"}, {"measurement": "mass density", "setting": "323.15 K, x2 = 0.3999", "value": "1266.5 ± 4.1", "unit": "kg/m3"}, {"measurement": "viscosity", "setting": "323.15 K, x2 = 0.3999", "value": "12.62 ± 0.91", "unit": "mPa·s"}, {"measurement": "mass density", "setting": "323.15 K, x2 = 0.501", "value": "1258.3 ± 4.1", "unit": "kg/m3"}, {"measurement": "viscosity", "setting": "323.15 K, x2 = 0.501", "value": "10.42 ± 0.77", "unit": "mPa·s"}, {"measurement": "mass density", "setting": "323.15 K, x2 = 0.5923", "value": "1248.5 ± 4", "unit": "kg/m3"}, {"measurement": "viscosity", "setting": "323.15 K, x2 = 0.5923", "value": "8.516 ± 0.65", "unit": "mPa·s"}, {"measurement": "mass density", "setting": "323.15 K, x2 = 0.7023", "value": "1231.1 ± 3.9", "unit": "kg/m3"}, {"measurement": "viscosity", "setting": "323.15 K, x2 = 0.7023", "value": "6.576 ± 0.53", "unit": "mPa·s"}, {"measurement": "mass density", "setting": "323.15 K, x2 = 0.799", "value": "1205.2 ± 3.8", "unit": "kg/m3"}, {"measurement": "viscosity", "setting": "323.15 K, x2 = 0.799", "value": "4.57 ± 0.4", "unit": "mPa·s"}, {"measurement": "mass density", "setting": "323.15 K, x2 = 0.901", "value": "1150 ± 3.6", "unit": "kg/m3"}, {"measurement": "viscosity", "setting": "323.15 K, x2 = 0.901", "value": "3.005 ± 0.27", "unit": "mPa·s"}, {"measurement": "mass density", "setting": "333.15 K, x2 = 0", "value": "1277.4 ± 4.7", "unit": "kg/m3"}, {"measurement": "viscosity", "setting": "333.15 K, x2 = 0", "value": "21.61 ± 1.5", "unit": "mPa·s"}, {"measurement": "mass density", "setting": "333.15 K, x2 = 0.1032", "value": "1273.1 ± 4.6", "unit": "kg/m3"}, {"measurement": "viscosity", "setting": "333.15 K, x2 = 0.1032", "value": "16.07 ± 1.1", "unit": "mPa·s"}, {"measurement": "mass density", "setting": "333.15 K, x2 = 0.1939", "value": "1269.7 ± 4.5", "unit": "kg/m3"}, {"measurement": "viscosity", "setting": "333.15 K, x2 = 0.1939", "value": "13.51 ± 0.96", "unit": "mPa·s"}, {"measurement": "mass density", "setting": "333.15 K, x2 = 0.2987", "value": "1265 ± 4.4", "unit": "kg/m3"}, {"measurement": "viscosity", "setting": "333.15 K, x2 = 0.2987", "value": "11.61 ± 0.85", "unit": "mPa·s"}, {"measurement": "mass density", "setting": "333.15 K, x2 = 0.3999", "value": "1259.3 ± 4.4", "unit": "kg/m3"}, {"measurement": "viscosity", "setting": "333.15 K, x2 = 0.3999", "value": "9.88 ± 0.74", "unit": "mPa·s"}, {"measurement": "mass density", "setting": "333.15 K, x2 = 0.501", "value": "1251.1 ± 4.3", "unit": "kg/m3"}, {"measurement": "viscosity", "setting": "333.15 K, x2 = 0.501", "value": "8.101 ± 0.63", "unit": "mPa·s"}, {"measurement": "mass density", "setting": "333.15 K, x2 = 0.5923", "value": "1241.3 ± 4.2", "unit": "kg/m3"}, {"measurement": "viscosity", "setting": "333.15 K, x2 = 0.5923", "value": "6.702 ± 0.54", "unit": "mPa·s"}, {"measurement": "mass density", "setting": "333.15 K, x2 = 0.7023", "value": "1223.4 ± 4.1", "unit": "kg/m3"}, {"measurement": "viscosity", "setting": "333.15 K, x2 = 0.7023", "value": "5.137 ± 0.44", "unit": "mPa·s"}, {"measurement": "mass density", "setting": "333.15 K, x2 = 0.799", "value": "1197.2 ± 4", "unit": "kg/m3"}, {"measurement": "viscosity", "setting": "333.15 K, x2 = 0.799", "value": "3.618 ± 0.32", "unit": "mPa·s"}, {"measurement": "mass density", "setting": "333.15 K, x2 = 0.901", "value": "1142.6 ± 3.8", "unit": "kg/m3"}, {"measurement": "viscosity", "setting": "333.15 K, x2 = 0.901", "value": "2.099 ± 0.19", "unit": "mPa·s"}, {"measurement": "mass density", "setting": "343.15 K, x2 = 0", "value": "1270.5 ± 4.9", "unit": "kg/m3"}, {"measurement": "viscosity", "setting": "343.15 K, x2 = 0", "value": "16.38 ± 1.1", "unit": "mPa·s"}, {"measurement": "mass density", "setting": "343.15 K, x2 = 0.1032", "value": "1266 ± 4.8", "unit": "kg/m3"}, {"measurement": "viscosity", "setting": "343.15 K, x2 = 0.1032", "value": "12.44 ± 0.9", "unit": "mPa·s"}, {"measurement": "mass density", "setting": "343.15 K, x2 = 0.1939", "value": "1262.6 ± 4.7", "unit": "kg/m3"}, {"measurement": "viscosity", "setting": "343.15 K, x2 = 0.1939", "value": "10.54 ± 0.78", "unit": "mPa·s"}, {"measurement": "mass density", "setting": "343.15 K, x2 = 0.2987", "value": "1257.9 ± 4.6", "unit": "kg/m3"}, {"measurement": "viscosity", "setting": "343.15 K, x2 = 0.2987", "value": "9.137 ± 0.69", "unit": "mPa·s"}, {"measurement": "mass density", "setting": "343.15 K, x2 = 0.3999", "value": "1252.2 ± 4.6", "unit": "kg/m3"}, {"measurement": "viscosity", "setting": "343.15 K, x2 = 0.3999", "value": "7.816 ± 0.61", "unit": "mPa·s"}, {"measurement": "mass density", "setting": "343.15 K, x2 = 0.501", "value": "1244 ± 4.5", "unit": "kg/m3"}, {"measurement": "viscosity", "setting": "343.15 K, x2 = 0.501", "value": "6.612 ± 0.53", "unit": "mPa·s"}, {"measurement": "mass density", "setting": "343.15 K, x2 = 0.5923", "value": "1233.9 ± 4.4", "unit": "kg/m3"}, {"measurement": "viscosity", "setting": "343.15 K, x2 = 0.5923", "value": "5.384 ± 0.46", "unit": "mPa·s"}, {"measurement": "mass density", "setting": "343.15 K, x2 = 0.7023", "value": "1215.6 ± 4.3", "unit": "kg/m3"}, {"measurement": "viscosity", "setting": "343.15 K, x2 = 0.7023", "value": "4.24 ± 0.37", "unit": "mPa·s"}, {"measurement": "mass density", "setting": "343.15 K, x2 = 0.799", "value": "1189.3 ± 4.2", "unit": "kg/m3"}, {"measurement": "viscosity", "setting": "343.15 K, x2 = 0.799", "value": "2.936 ± 0.26", "unit": "mPa·s"}, {"measurement": "mass density", "setting": "343.15 K, x2 = 0.901", "value": "1134.3 ± 4.1", "unit": "kg/m3"}, {"measurement": "viscosity", "setting": "343.15 K, x2 = 0.901", "value": "1.714 ± 0.16", "unit": "mPa·s"}]}]}
